In patent publication US20060069132A1, “Azolecarboxamide herbicides” (priority 2004, published 2006):

Tests used:
cocklebur = test: Test B pre-/postemergence herbicide test; format: in vivo, Xanthium strumarium; conditions: for Plant response rating (0 to 100 scale), Cocklebur: 0 is no effect, 100 is complete control, preemergence
Procedure, shortened: (§1)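 Flooded paddy rice and barnyardgrass were treated at the 2-leaf stage; upland plantings received compound either on sown seed or on 1- to 4-leaf seedlings. All were kept 13–15 days in a greenhouse and scored visually, 0–100, relative to untreated plants.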

barnyardgrass [1] = test: Test B pre-/postemergence herbicide test; format: in vivo, Echinochloa crus-galli; conditions: for Plant response rating (0 to 100 scale), Barnyardgrass: 0 is no effect, 100 is complete control, preemergence; for Barnyardgrass plant response rating: Postemergence, scale 0 (no effect) to 100 (complete control)
Procedure, shortened: as §1

Surinam grass = test: Test B pre-/postemergence herbicide test; format: in vivo, Urochloa decumbens; conditions: for Plant response rating (0 to 100 scale), Surinam Grass: 0 is no effect, 100 is complete control, preemergence
Procedure, shortened: (§2)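 Visual rating, 0 (no effect) to 100 (complete control), versus untreated controls after 13–15 d in greenhouse. Pre- and postemergence applications (postemergence plants 2–18 cm, 1–4 leaves); flooded paddy arm at 2-leaf stage. Compounds in non-phytotoxic solvent plus surfactant.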

[2] = system: small flower umbrella sedge; test: Test B flooded paddy test; format: in vivo, Cyperus difformis; conditions: 1000 g ai/ha, scale 0 to 100 (0 no effect, 100 complete control)
Procedure, shortened: (§3)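 After treating 2-leaf paddy plants or 2–18 cm postemergence plants (1 to 4 leaves) with formulated chemical, researchers kept them in a greenhouse for 13–15 days. Effects were judged visually versus controls: 0 indicates none, 100 total control.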

lambsquarters = test: Test B pre-/postemergence herbicide test; format: in vivo, Chenopodium album; conditions: for Plant response rating (0 to 100 scale), Lambsquarters: 0 is no effect, 100 is complete control, preemergence
Procedure, shortened: as §2

velvetleaf = test: Test B pre-/postemergence herbicide test; format: in vivo, Abutilon theophrasti; conditions: for Plant response rating (0 to 100 scale), Velvetleaf: 0 is no effect, 100 is complete control, preemergence
Procedure, shortened: as §2

morningglory = test: Test B pre-/postemergence herbicide test; format: in vivo, Ipomoea coccinea; conditions: for Plant response rating (0 to 100 scale), Morningglory: 0 is no effect, 100 is complete control, preemergence
Procedure, shortened: as §1

large crabgrass = test: Test B pre-/postemergence herbicide test; format: in vivo, Digitaria sanguinalis; conditions: for Plant response rating (0 to 100 scale), Crabgrass, Large: 0 is no effect, 100 is complete control, preemergence
Procedure, shortened: as §2

pigweed = test: Test B pre-/postemergence herbicide test; format: in vivo, Amaranthus retroflexus; conditions: for Plant response rating (0 to 100 scale), Pigweed: 0 is no effect, 100 is complete control, preemergence
Procedure, shortened: as §2

giant foxtail = test: Test B pre-/postemergence herbicide test; format: in vivo, Setaria faberi; conditions: for Plant response rating (0 to 100 scale), Foxtail, Giant: 0 is no effect, 100 is complete control, preemergence
Procedure, shortened: as §2

wild oat = test: Test B postemergence herbicide test; format: in vivo, Avena fatua
Procedure, shortened: as §3

barnyardgrass [3] = test: Test B flooded paddy test; format: in vivo, Echinochloa crus-galli; conditions: 1000 g ai/ha, scale 0 to 100 (0 no effect, 100 complete control)
Procedure, shortened: as §3

wheat = test: Test B postemergence herbicide test; format: in vivo, Triticum aestivum; set-up: key to Wheat plant response rating: 0 = no effect, 100 = complete control
Procedure, shortened: as §3

blackgrass = test: Test B postemergence herbicide test; format: in vivo, Alopecurus myosuroides
Procedure, shortened: as §3

rice = test: Test B flooded paddy test; format: in vivo, Oryza sativa; conditions: 1000 g ai/ha, scale 0 to 100 (0 no effect, 100 complete control)
Procedure, shortened: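 Read-out: visual comparison with controls, scored 0 to 100, where 100 means complete control and 0 no effect. Formulated chemicals were applied postemergence to plants 2–18 cm tall (1- to 4-leaf), or to flooded-paddy plants at the 2-leaf stage, then held 13 to 15 days under glass.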

[4] = Postemergence, 500 g ai/ha, scale 0 (no effect) to 100 (complete control)
[5] = postemergence, 125 g ai/ha, scale 0 to 100
[6] = 500 g ai/ha, scale 0 to 100, 0 no effect, 100 complete control, preemergence

Question: Which “Cocklebur plant response rating” value (cocklebur; [4]) does the source give for `CCN(C(C)=O)C(=O)c1ccc(F)c(NC(=O)c2cc(C(C)(C)C)nn2CC)c1` [Compound 413] here?
Answer: 90

Question: What about the “Cocklebur plant response rating” value (cocklebur; [5]) of the same compound?
Answer: 30

Question: What about the “Plant response rating (0 to 100 scale), Barnyardgrass” value (barnyardgrass [1]; 125 g ai/ha) of the same compound?
Answer: 40

Question: What about the “Barnyardgrass plant response rating” value (barnyardgrass [1]; 125 g ai/ha) of the same compound?
Answer: 10

Question: And the “Barnyardgrass plant response rating” value (barnyardgrass [1]; 500 g ai/ha)?
Answer: 20

Question: What about the “Plant response rating (0 to 100 scale), Surinam Grass” value (Surinam grass; 125 g ai/ha) of the same compound?
Answer: 10

Question: What about the “Surinam Grass plant response rating” value (Surinam grass; [4]) of the same compound?
Answer: 20

Question: What about the “Surinam Grass plant response rating” value (Surinam grass; [5]) of the same compound?
Answer: 20

Question: What about the “Sedge, Umbrella plant response rating” value [2] of the same compound?
Answer: 90

Question: What about the “Lambsquarters plant response rating” value (lambsquarters; [4]) of the same compound?
Answer: 90

Question: What about the “Lambsquarters plant response rating” value (lambsquarters; [5]) of the same compound?
Answer: 70

Question: What about the “Plant response rating (0 to 100 scale), Velvetleaf” value (velvetleaf; 125 g ai/ha) of the same compound?
Answer: 0

Question: And the “Velvetleaf plant response rating” value (velvetleaf; [4])?
Answer: 50

Question: What about the “Velvetleaf plant response rating” value (velvetleaf; [5]) of the same compound?
Answer: 30

Question: What about the “Plant response rating (0 to 100 scale), Morningglory” value (morningglory; 125 g ai/ha) of the same compound?
Answer: 0

Question: What about the “Morningglory plant response rating” value (morningglory; [4]) of the same compound?
Answer: 70

Question: And the “Morningglory plant response rating” value (morningglory; [5])?
Answer: 30

Question: And the “Plant response rating (0 to 100 scale), Crabgrass, Large” value (large crabgrass; 125 g ai/ha)?
Answer: 20

Question: And the “Crabgrass, Large plant response rating” value (large crabgrass; [4])?
Answer: 20

Question: And the “Crabgrass, Large plant response rating” value (large crabgrass; [5])?
Answer: 10

Question: What about the “Plant response rating (0 to 100 scale), Pigweed” value (pigweed; 125 g ai/ha) of the same compound?
Answer: 20

Question: What about the “Pigweed plant response rating” value (pigweed; [4]) of the same compound?
Answer: 70

Question: And the “Pigweed plant response rating” value (pigweed; [5])?
Answer: 50

Question: And the “Plant response rating (0 to 100 scale), Foxtail, Giant” value (giant foxtail; 125 g ai/ha)?
Answer: 10

Question: What about the “Foxtail, Giant plant response rating” value (giant foxtail; [4]) of the same compound?
Answer: 20

Question: What about the “Foxtail, Giant plant response rating” value (giant foxtail; [5]) of the same compound?
Answer: 20

Question: What about the “Oat, Wild plant response rating” value (wild oat; [4]) of the same compound?
Answer: 10

Question: And the “Oat, Wild plant response rating” value (wild oat; [5])?
Answer: 0

Question: What about the “Barnyardgrass plant response rating” value (barnyardgrass [3]) of the same compound?
Answer: 60

Question: And the “Wheat plant response rating” value (wheat; [6])?
Answer: 80

Question: What about the “Wheat plant response rating” value (wheat; [4]) of the same compound?
Answer: 10

Question: And the “Wheat plant response rating” value (wheat; [5])?
Answer: 0

Question: And the “Blackgrass plant response rating” value (blackgrass; [4])?
Answer: 20

Question: And the “Blackgrass plant response rating” value (blackgrass; [5])?
Answer: 10

Question: What about the “Rice plant response rating” value (rice) of the same compound?
Answer: 60

Question: Which results are given for `Cc1nn(C(C)(C)C)nc1C(=O)Nc1cccc(C(=S)N(C)C)c1` [Compound 419]?
Answer: Plant response rating (0 to 100 scale), Cocklebur (cocklebur; 125 g ai/ha): 30; Cocklebur plant response rating (cocklebur; [4]): 40; Cocklebur plant response rating (cocklebur; [5]): 20; Plant response rating (0 to 100 scale), Barnyardgrass (barnyardgrass [1]; 125 g ai/ha): 100; Barnyardgrass plant response rating (barnyardgrass [1]; 125 g ai/ha): 20; Barnyardgrass plant response rating (barnyardgrass [1]; 500 g ai/ha): 50; Plant response rating (0 to 100 scale), Surinam Grass (Surinam grass; 125 g ai/ha): 90; Surinam Grass plant response rating (Surinam grass; [4]): 30; Surinam Grass plant response rating (Surinam grass; [5]): 20; Sedge, Umbrella plant response rating [2]: 80; Plant response rating (0 to 100 scale), Lambsquarters (lambsquarters; 125 g ai/ha): 100; Lambsquarters plant response rating (lambsquarters; [4]): 90; Lambsquarters plant response rating (lambsquarters; [5]): 70; Plant response rating (0 to 100 scale), Velvetleaf (velvetleaf; 125 g ai/ha): 70; Velvetleaf plant response rating (velvetleaf; [4]): 50; Velvetleaf plant response rating (velvetleaf; [5]): 20; Plant response rating (0 to 100 scale), Morningglory (morningglory; 125 g ai/ha): 50; Morningglory plant response rating (morningglory; [4]): 90; Morningglory plant response rating (morningglory; [5]): 80; Plant response rating (0 to 100 scale), Crabgrass, Large (large crabgrass; 125 g ai/ha): 100; Crabgrass, Large plant response rating (large crabgrass; [4]): 40; Crabgrass, Large plant response rating (large crabgrass; [5]): 30; Plant response rating (0 to 100 scale), Pigweed (pigweed; 125 g ai/ha): 100; Pigweed plant response rating (pigweed; [4]): 80; Pigweed plant response rating (pigweed; [5]): 60; Plant response rating (0 to 100 scale), Foxtail, Giant (giant foxtail; 125 g ai/ha): 90; Foxtail, Giant plant response rating (giant foxtail; [4]): 30; Foxtail, Giant plant response rating (giant foxtail; [5]): 30; Oat, Wild plant response rating (wild oat; [4]): 20; Oat, Wild plant response rating (wild oat; [5]): 0; Barnyardgrass plant response rating (barnyardgrass [3]): 90; Wheat plant response rating (wheat; [6]): 100; Wheat plant response rating (wheat; [4]): 20; Wheat plant response rating (wheat; [5]): 10; Blackgrass plant response rating (blackgrass; [4]): 30; Blackgrass plant response rating (blackgrass; [5]): 10; Rice plant response rating (rice): 80

Question: What does the source list for `CCNC(=S)c1cccc(NC(=O)c2nn(C(C)(C)C)nc2C)c1` [Compound 420]?
Answer: Plant response rating (0 to 100 scale), Cocklebur (cocklebur; 125 g ai/ha): 0; Cocklebur plant response rating (cocklebur; [4]): 40; Cocklebur plant response rating (cocklebur; [5]): 10; Plant response rating (0 to 100 scale), Barnyardgrass (barnyardgrass [1]; 125 g ai/ha): 90; Barnyardgrass plant response rating (barnyardgrass [1]; 125 g ai/ha): 20; Barnyardgrass plant response rating (barnyardgrass [1]; 500 g ai/ha): 50; Plant response rating (0 to 100 scale), Surinam Grass (Surinam grass; 125 g ai/ha): 70; Surinam Grass plant response rating (Surinam grass; [4]): 30; Surinam Grass plant response rating (Surinam grass; [5]): 20; Sedge, Umbrella plant response rating [2]: 70; Plant response rating (0 to 100 scale), Lambsquarters (lambsquarters; 125 g ai/ha): 100; Lambsquarters plant response rating (lambsquarters; [4]): 90; Lambsquarters plant response rating (lambsquarters; [5]): 70; Plant response rating (0 to 100 scale), Velvetleaf (velvetleaf; 125 g ai/ha): 50; Velvetleaf plant response rating (velvetleaf; [4]): 30; Velvetleaf plant response rating (velvetleaf; [5]): 20; Plant response rating (0 to 100 scale), Morningglory (morningglory; 125 g ai/ha): 50; Morningglory plant response rating (morningglory; [4]): 90; Morningglory plant response rating (morningglory; [5]): 80; Plant response rating (0 to 100 scale), Crabgrass, Large (large crabgrass; 125 g ai/ha): 100; Crabgrass, Large plant response rating (large crabgrass; [4]): 40; Crabgrass, Large plant response rating (large crabgrass; [5]): 30; Plant response rating (0 to 100 scale), Pigweed (pigweed; 125 g ai/ha): 100; Pigweed plant response rating (pigweed; [4]): 70; Pigweed plant response rating (pigweed; [5]): 60; Plant response rating (0 to 100 scale), Foxtail, Giant (giant foxtail; 125 g ai/ha): 80; Foxtail, Giant plant response rating (giant foxtail; [4]): 30; Foxtail, Giant plant response rating (giant foxtail; [5]): 20; Oat, Wild plant response rating (wild oat; [4]): 30; Oat, Wild plant response rating (wild oat; [5]): 20; Barnyardgrass plant response rating (barnyardgrass [3]): 90; Wheat plant response rating (wheat; [6]): 100; Wheat plant response rating (wheat; [4]): 20; Wheat plant response rating (wheat; [5]): 10; Blackgrass plant response rating (blackgrass; [4]): 40; Blackgrass plant response rating (blackgrass; [5]): 10; Rice plant response rating (rice): 60
